Measurements reported in patent US11046709B2, “Fused 1,4-diazepines as BET bromodomain inhibitors” (THE REGENTS OF THE UNIVERSITY OF MICHIGAN, priority 2017, dated 2021).

How the values were obtained:
[1] = biological target: T1, recombinant BRD4 BD1 (Homo sapiens, UniProt O60885); assay: Competitive fluorescence-polarization (FP) binding assay, BRD4 BD1; settings: competitive FP, Table 6; read-out: IC50 as determinined in FP assays BRD4 BD1
T1 construct: for recombinant BRD4 BD1 and BRD4 BD2 proteins

[2] = biological target: T2, recombinant BRD4 BD2 (Homo sapiens, UniProt O60885); assay: Competitive fluorescence-polarization (FP) binding assay, BRD4 BD2; settings: competitive FP, Table 6; read-out: IC50 as determinined in FP assays BRD4 BD2
T2 construct: for recombinant BRD4 BD1 and BRD4 BD2 proteins

[3] = tested on: RS4;11; assay: Cell growth inhibition, 4-day proliferation assay, RS4;11; assay type: cell-based; settings: Homo sapiens, RS4-11; WST-8 assay, Table 7; read-out: Cell growth inhibition (IC50 (nM)) RS4;11
Description: The effect of representative Compounds of the Disclosure on cell viability was determined in a 4-day proliferation assay. Cells were maintained in the appropriate culture medium with 100/0 FBS at 37° C. and an atmosphere of 5% CO2. All the cell lines were used within three months of thawing fresh vials.
In general, cells were seeded in 96-well flat bottom (Corning COSTAR, Corning, N.Y., cat #3595) or white opaque cell culture plates (BD Falcon, cat #353296) at a density of 3,000-10,000 cells/well in 75 μl of culture medium. Compounds were serially diluted in the appropriate medium, and 75 μl of the diluted compounds were added to the appropriate wells of the cell plate. After the addition of compounds, the cells were incubated at 37° C. in an atmosphere of 5% CO2 for 4 days. Cell viability was determined using the CellTiter-Glo® Luminescent Cell Viability Assay Kit (Promega, Madison, Wis.) for leukemia cells and WST (2-(2-methoxy-4-nitrophenyl)-3-(4-nitrophenyl)-5-(2,4-disulfophenyl)-2H-tetrazolium, monosodium salt) Cell Counting-8 Kit (Dojindo Molecular Technologies, Inc., Rockville, Md.) for adherent cells according to the manufacturers' instructions.
For WST assay (adherent cells), WST-8 reagent was added to each well at a final concentration of 10% (v/v), and then the plates were incubated at 37° C. for 1-2 hours for color development. The absorbance was measured at 450 nm using a SPECTRAmax PLUS plate reader (Molecular Devices, Sunnyvale, Calif.). The readings were normalized to the DMSO-treated cells and the half maximal inhibitory concentration (IC50) was calculated by nonlinear regression (four parameters sigmoid fitted with variable slope, least squares fit, and no constraint) analysis using the GraphPad Prism 5 software (GraphPad Software, La Jolla, Calif.).
For CellTiter-Glo assay (suspension cells), 100 μl of CellTiter-Glo® Reagent was added to each well, and then the plates were incubated at room temperature for 10-20 minutes. The luminescent signal was measured using a Tecan Infinite M1000 multimode microplate reader (Tecan, Morrisville, N.C.). The readings were normalized to the DMSO-treated cells and the IC50 was calculated by nonlinear regression (four parameters sigmoid fitted with variable slope, least squares fit, and no constraint) analysis using the GraphPad Prism 5 software. See US 2014/0256706.
For a number of representative compounds in Table 5, their IC50 values in cell growth inhibition activity in the RS4;11 and MOLM-13 human leukemia cell lines and the MDA-MB-231 breast cancer cell line were evaluated using the WST-8 assay described in EXAMPLE 7, with the data shown in Table 7.

[4] = tested on: MOLM-13; assay: Cell growth inhibition, 4-day proliferation assay, MOLM-13; assay type: cell-based; settings: Homo sapiens, MOLM-13, WST-8 assay, Table 7; read-out: Cell growth inhibition (IC50 (nM)) MOLM-13
[5] = tested on: MDA-MB-231; assay: Cell growth inhibition, 4-day proliferation assay, MDA-MB-231; assay type: cell-based; settings: Homo sapiens, MDA-MB-231; WST-8 assay, Table 7; read-out: Cell growth inhibition (IC50 (nM)) MDA-MB-231
Summary of the method: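 Cells seeded at 3,000-10,000/well, treated with serially diluted compounds 4 days at 37 °C, 5% CO2. Viability by WST-8 (10% v/v, 1-2 h, A450); readings normalized to DMSO-treated cells, IC50 by four-parameter nonlinear regression.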

[6] = biological target: BRD2 BD1 (Homo sapiens, UniProt P25440); assay: Competitive FP binding assay, BRD2 BD1; settings: Table 8, read-out: IC50 (nM) in FP assays BRD2 BD1
Sequence of BRD2 BD1 (P25440 74-180 limits assumed): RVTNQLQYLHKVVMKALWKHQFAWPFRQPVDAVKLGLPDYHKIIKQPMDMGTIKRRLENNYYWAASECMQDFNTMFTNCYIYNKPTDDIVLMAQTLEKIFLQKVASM
Description: (§1) Fluorescence Polarization (FP) competitive binding studies were carried out using a FAM labeled fluorescent probe, see, e.g., Cpd. No. 350 of US 2014/0256706, to determine binding affinities of representative Compounds of the Disclosure for recombinant BRD4 BD1 and BRD4 BD2 proteins. Equilibrium dissociation constants (Kd) values of the fluorescent probe to BRD4 BD1 and BD2 proteins were determined from protein saturation experiments by monitoring the total fluorescence polarization of mixtures composed with the fluorescent probe at a fixed concentration and proteins with increasing concentrations up to full saturation. Serial dilutions of testing proteins were mixed with the fluorescent probe to a final volume of 200 μl in the assay buffer (100 mM phosphate buffer, pH=6.5, 0.01% Triton X-100 (Sigma, 282103) being added right before assays). Final fluorescent probe concentration was 1.5 nM for both proteins. Plates were incubated at room temperature for 30 minutes with gentle shaking to assure equilibrium. FP values in millipolarization units (mP) were measured using the Infinite M-1000 plate reader (Tecan U.S., Research Triangle Park, N.C.) in Microfluor 1 96-well, black, round-bottom plates (Thermo Scientific, Waltham, Mass.) at an excitation wavelength of 485 nm and an emission wavelength of 530 nm. Kd values of the fluorescent probe, which were calculated by fitting the sigmoidal dose-dependent FP increases as a function of protein concentrations using Graphpad Prism 6.0 software (Graphpad Software, San Diego, Calif.), are 5.5 and 3.0 nM to BDR4 BD1 and 2, respectively.
(§2) The IC50 and Ki values of compounds were determined in a competitive binding experiment. See US 2014/0256706. Mixtures of 10 μl of the tested compounds in assay buffer with 40% Ethylene Glycol and 190 μl of preincubated protein/probe complex solution in the assay buffer (100 mM potassium phosphate, pH 6.5, 0.01% Triton X-100) were added into assay plates which were incubated at room temperature for 30 minutes with gentle shaking. Final concentrations of proteins were 10 and 6 nM in assays for BRD4 BD1 and BD2, respectively. Final probe concentration is 1.5 nM in both assays. […] FP values were measured as described above. IC50 values were determined by nonlinear regression fitting of the competition curves. Instead of being calculated from IC50 values as described before. […]
(§3) For several representative compounds in Table 5, their binding affinities to BRD2 BD1 and BD2 proteins, and BRD3 BD1 and BD2 proteins were determined using the Competitive Fluorescence-Polarization (FP) Assays described in Example 6, with the data included in Table 8.

[7] = biological target: BRD2 BD2 (Homo sapiens, UniProt P25440); assay: Competitive FP binding assay, BRD2 BD2; settings: Table 8, read-out: IC50 (nM) in FP assays BRD2 BD2
Sequence of BRD2 BD2 (P25440 344-453 limits assumed): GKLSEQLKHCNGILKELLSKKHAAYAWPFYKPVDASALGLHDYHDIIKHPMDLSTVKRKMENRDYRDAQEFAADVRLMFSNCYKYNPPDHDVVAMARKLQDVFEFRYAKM
Description: as §1, §2, §3

[8] = biological target: BRD3 BD1 (Homo sapiens, UniProt Q15059); assay: Competitive FP binding assay, BRD3 BD1; settings: Table 8, read-out: IC50 (nM) in FP assays BRD3 BD1
Sequence of BRD3 BD1 (Q15059 34-140 limits assumed): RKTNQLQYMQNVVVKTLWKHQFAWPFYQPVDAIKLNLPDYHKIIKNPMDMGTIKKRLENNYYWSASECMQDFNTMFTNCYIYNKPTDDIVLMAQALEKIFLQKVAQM
Description: as §1, §2, §3

[9] = biological target: BRD3 BD2 (Homo sapiens, UniProt Q15059); assay: Competitive FP binding assay, BRD3 BD2; settings: Table 8, read-out: IC50 (nM) in FP assays BRD3 BD2
Sequence of BRD3 BD2 (Q15059 306-415 limits assumed): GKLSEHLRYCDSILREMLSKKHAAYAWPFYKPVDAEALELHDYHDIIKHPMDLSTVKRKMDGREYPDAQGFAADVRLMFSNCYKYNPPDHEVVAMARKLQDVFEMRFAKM
Description: as §1, §2, §3

[10] = Plasma exposure after oral gavage in mice, LC-MS/MS; assay type: in vivo; settings: mouse, plasma, mice, oral gavage 25 mg/kg; for concentration at 1 h: read-out: Plasma concentration (ng/mL) 1 h; for concentration at 3 h: read-out: Plasma concentration (ng/mL) 3 h; for concentration at 6 h: read-out: Plasma concentration (ng/mL) 6 h
Description: For a number of representative compounds in Table 5, their plasma exposures with oral administration in mice via oral gavage were determined by LC-MS/MS, with the data shown in Table 9.

| Compound | IC50 [1] [nM] | IC50 [2] [nM] | IC50 [3] [nM] | IC50 [4] [nM] | IC50 [5] [nM] | IC50 [6] [nM] | IC50 [7] [nM] | IC50 [8] [nM] | IC50 [9] [nM] | concentration at 1 h [10] [ng/mL] | concentration at 3 h [10] [ng/mL] | concentration at 6 h [10] [ng/mL] |
| --- | --- | --- | --- | --- | --- | --- | --- | --- | --- | --- | --- | --- |
| Cc1nnc(C[C@@H]2N=C(c3ccc(Cl)cc3)c3c(sc(C#CC4CCOCC4)c3C)-n3c(C)nnc32)o1 [Compound 145, (S)-2-((4-(4-chlorophenyl)-3,9-dimethyl-2-((tetrahydro-2H-pyran-4-yl)ethynyl)-6H-thieno[3,2-f][1,2,4]triazolo[4,3-a][1,4]diazepin-6-yl)methyl)-5-methyl-1,3,4-oxadiazole] | 16.3 | 47.5 | 13.3 | 11.3 | 105 | 26 | 50.7 | 38.6 | 161 | 6620 | 4880 | 629 |
| Cc1c(C#CC2CCOCC2)sc2c1C(c1ccc(Cl)cc1)=N[C@@H](CC(=O)N1CC(C)(O)C1)c1nnc(C)n1-2 [Compound 158, (S)-2-(4-(4-chlorophenyl)-3,9-dimethyl-2-((tetrahydro-2H-pyran-4-yl)ethynyl)-6H-thieno[3,2-f][1,2,4]triazolo[4,3-a][1,4]diazepin-6-yl)-1-(3-hydroxy-3-methylazetidin-1-yl)ethan-1-one] | 48.3 | 69.1 | 43 | 24.5 | – | 40.2 | 182 | 63.7 | 220 | 3380 | 1810 | 946 |
| Cc1c(C#CC2CCOCC2)sc2c1C(c1ccc(Cl)cc1)=N[C@@H](CC(=O)N1CCC(O)CC1)c1nnc(C)n1-2 [Compound 159, (S)-2-(4-(4-chlorophenyl)-3,9-dimethyl-2-((tetrahydro-2H-pyran-4-yl)ethynyl)-6H-thieno[3,2-f][1,2,4]triazolo[4,3-a][1,4]diazepin-6-yl)-1-(4-hydroxypiperidin-1-yl)ethan-1-one] | 36.2 | 47.6 | 39.5 | 35.4 | – | 34.4 | 143 | 76.5 | 127 | 3460 | 2120 | 1700 |
